The source of these data is patent US9656959B2, “Substituted pyridines as sodium channel blockers” (Purdue Pharma L.P., priority 2010, dated 2017).

Broadly, the IC50 is the concentration that inhibits the measured activity by half.

One assay deals with human Nav1.7 (Homo sapiens (Human), UniProt Q15858). Nature of the assay: FLIPR or FLIPR TETRA sodium dye assay with KCl and test article pre-incubation. It counts as cell-based. To be noted: read-out: Nav1.7 Activity (μM) FLIPR assay IC50 (μM) ± SEM.
human Nav1.7, sequence (Q15858 with tags, fused parts or gaps limits assumed): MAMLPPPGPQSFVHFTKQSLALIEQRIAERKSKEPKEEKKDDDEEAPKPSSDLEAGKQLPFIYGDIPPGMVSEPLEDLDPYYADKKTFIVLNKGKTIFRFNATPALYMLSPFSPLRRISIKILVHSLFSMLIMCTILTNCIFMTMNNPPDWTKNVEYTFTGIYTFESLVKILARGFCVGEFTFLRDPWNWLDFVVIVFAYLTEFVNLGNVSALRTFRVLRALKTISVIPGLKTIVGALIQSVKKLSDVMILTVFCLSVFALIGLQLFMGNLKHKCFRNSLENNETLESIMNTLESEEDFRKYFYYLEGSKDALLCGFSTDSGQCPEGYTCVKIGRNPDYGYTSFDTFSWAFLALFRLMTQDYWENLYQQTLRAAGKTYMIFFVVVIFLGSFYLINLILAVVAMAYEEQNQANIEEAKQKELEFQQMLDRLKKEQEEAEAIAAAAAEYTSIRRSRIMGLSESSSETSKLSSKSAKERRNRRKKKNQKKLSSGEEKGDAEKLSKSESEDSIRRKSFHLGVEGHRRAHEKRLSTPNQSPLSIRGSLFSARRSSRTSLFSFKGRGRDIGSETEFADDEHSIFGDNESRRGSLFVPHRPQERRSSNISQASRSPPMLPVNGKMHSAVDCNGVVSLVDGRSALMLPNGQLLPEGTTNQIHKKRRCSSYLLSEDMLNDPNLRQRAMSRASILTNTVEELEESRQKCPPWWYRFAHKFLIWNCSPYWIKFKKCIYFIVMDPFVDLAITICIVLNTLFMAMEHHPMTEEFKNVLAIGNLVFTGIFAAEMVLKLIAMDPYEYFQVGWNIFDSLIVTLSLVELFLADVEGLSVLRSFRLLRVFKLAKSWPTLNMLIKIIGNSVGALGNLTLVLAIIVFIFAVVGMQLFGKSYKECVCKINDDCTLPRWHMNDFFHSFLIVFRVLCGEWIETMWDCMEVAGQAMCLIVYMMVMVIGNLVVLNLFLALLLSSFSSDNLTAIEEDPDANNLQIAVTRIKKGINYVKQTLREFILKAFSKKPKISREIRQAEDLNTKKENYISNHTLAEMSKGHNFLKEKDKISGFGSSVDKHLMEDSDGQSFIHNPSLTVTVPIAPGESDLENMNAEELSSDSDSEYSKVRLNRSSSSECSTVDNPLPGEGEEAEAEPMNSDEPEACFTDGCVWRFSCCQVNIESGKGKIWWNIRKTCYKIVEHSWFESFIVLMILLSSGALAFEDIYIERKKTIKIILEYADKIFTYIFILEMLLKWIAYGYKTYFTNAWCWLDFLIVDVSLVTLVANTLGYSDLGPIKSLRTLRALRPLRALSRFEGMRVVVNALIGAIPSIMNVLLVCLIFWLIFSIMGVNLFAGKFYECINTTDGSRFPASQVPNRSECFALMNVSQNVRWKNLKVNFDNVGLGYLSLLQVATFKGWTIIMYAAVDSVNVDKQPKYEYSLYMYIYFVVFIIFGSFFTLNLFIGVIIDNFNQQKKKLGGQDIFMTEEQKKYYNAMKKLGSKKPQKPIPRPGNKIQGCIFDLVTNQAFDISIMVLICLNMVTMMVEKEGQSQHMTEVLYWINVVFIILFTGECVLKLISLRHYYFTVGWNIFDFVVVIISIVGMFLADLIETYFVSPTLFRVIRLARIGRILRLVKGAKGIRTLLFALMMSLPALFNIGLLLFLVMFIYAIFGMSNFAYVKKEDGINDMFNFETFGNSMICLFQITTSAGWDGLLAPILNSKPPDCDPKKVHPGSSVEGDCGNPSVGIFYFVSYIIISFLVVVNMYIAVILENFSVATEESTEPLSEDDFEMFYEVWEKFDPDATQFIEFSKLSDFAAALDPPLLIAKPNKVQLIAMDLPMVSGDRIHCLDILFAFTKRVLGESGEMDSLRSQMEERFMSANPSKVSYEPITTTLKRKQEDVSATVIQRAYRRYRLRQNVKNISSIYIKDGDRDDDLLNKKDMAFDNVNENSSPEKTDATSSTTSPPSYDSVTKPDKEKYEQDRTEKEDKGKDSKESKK
For `COCCOCC(=O)N[C@@H](CC(C)C)C(=O)Nc1cccc(-c2ccc(Oc3ccc(F)cc3)cc2)n1` [Compound 9, (S)-N-(6-(4-(4-fluorophenoxy)phenyl)pyridin-2-yl)-2-(2-(2-methoxyethoxy)acetamido)-4-methylpentanamide], the IC50 was determined as 0.091 ± 0.02 µM.

Consider `CC(C)C[C@H](NC(=O)c1cccnc1)C(=O)Nc1cccc(-c2ccc(Oc3ccc(F)cc3)cc2)n1` [Compound 10, (S)-N-(1-((6-(4-(4-fluorophenoxy)phenyl)pyridin-2-yl)amino)-4-methyl-1-oxopentan-2-yl)nicotinamide], for which the IC50 stood at 0.091 ± 0.03 µM.

Take `CC(C)C[C@H](NC(=O)NC(C)C)C(=O)Nc1cccc(-c2ccc(Oc3ccc(F)cc3)cc2)n1` [Compound 11, (S)-N-(6-(4-(4-fluorophenoxy)phenyl)pyridin-2-yl)-2-(3-isopropylureido)-4-methylpentanamide]: the IC50 came out at 0.086 ± 0.02 µM.

As to `CS(=O)(=O)Nc1cc(Cl)cc(-c2ccc(Oc3ccc(F)cc3)cc2)n1` [Compound 15, N-(4-chloro-6-(4-(4-fluorophenoxy)phenyl)pyridin-2-yl)methanesulfonamide], the IC50 came out at 0.26 ± 0.07 µM.

For the molecule `CS(=O)(=O)N(C[C@H](O)CO)c1cc(Cl)cc(-c2ccc(Oc3ccc(F)cc3)cc2)n1` [Compound 17, (S)-N-(4-chloro-6-(4-(4-fluorophenoxy)phenyl)pyridin-2-yl)-N-(2,3-dihydroxypropyl)methanesulfonamide], the concentration for half-maximal inhibition (IC50) turned out to be 0.094 ± 0.03 µM.

Consider `NS(=O)(=O)Nc1cc(Cl)cc(-c2ccc(Oc3ccc(F)cc3)cc2)n1` [Compound 18, N-(4-chloro-6-(4-(4-fluorophenoxy)phenyl)pyridin-2-yl)sulfamide], for which the IC50 worked out at 1.5 ± 0.3 µM.

Turning to `CS(=O)(=O)Nc1cc([C@H](O)CO)cc(-c2ccc(Oc3ccc(F)cc3)cc2)n1` [Compound 24, (S)-N-(4-(1,2-dihydroxyethyl)-6-(4-(4-fluorophenoxy)phenyl)pyridin-2-yl)methanesulfonamide], the IC50 came out at 2.9 ± 0.8 µM.

As to `CS(=O)(=O)Nc1cccc(-c2ccc(Oc3ccc(F)cc3)cc2)n1` [Compound 27, N-(6-(4-(4-fluorophenoxy)phenyl)pyridin-2-yl)methanesulfonamide], the IC50 was found to be 0.34 ± 0.05 µM.

Take `O=S(=O)(Nc1cccc(-c2ccc(Oc3ccc(F)cc3)cc2)n1)C1CC1` [Compound 28, N-(6-(4-(4-fluorophenoxy)phenyl)pyridin-2-yl)cyclopropane Sulfonamide]: the IC50 came out at 0.22 ± 0.07 µM.

For `Cn1cnc(S(=O)(=O)Nc2cccc(-c3ccc(Oc4ccc(F)cc4)cc3)n2)c1` [Compound 29, N-(6-(4-(4-fluorophenoxy)phenyl)pyridin-2-yl)-1-methyl-1H-imidazole-4-sulfonamide], the IC50 came to 0.32 ± 0.05 µM.

For the molecule `N[C@@H](Cc1c[nH]cn1)C(=O)Nc1cccc(-c2ccc(Oc3ccc(F)cc3)cc2)n1` [Compound 31, (S)-2-amino-N-(6-(4-(4-fluorophenoxy)phenyl)pyridin-2-yl)-3-(1H-imidazol-4-yl)propanamide], the IC50 stood at 0.18 ± 0.02 µM.

On to `CC(=O)N1CCC(C(=O)N[C@@H](Cc2c[nH]cn2)C(=O)Nc2cccc(-c3ccc(Oc4ccc(F)cc4)cc3)n2)CC1` [Compound 34, (S)-1-acetyl-N-(1-((6-(4-(4-fluorophenoxy)phenyl)pyridin-2-yl)amino)-3-(1H-imidazol-4-yl)-1-oxopropan-2-yl)piperidine-4-carboxamide], for which the half-maximal inhibitory concentration (IC50) worked out at 0.58 ± 0.05 µM.

For the molecule `COCC(=O)N[C@@H](Cc1c[nH]cn1)C(=O)Nc1cccc(-c2ccc(Oc3ccc(F)cc3)cc2)n1` [Compound 35, (S)-N-(6-(4-(4-fluorophenoxy)phenyl)pyridin-2-yl)-3-(1H-imidazol-4-yl)-2-(2-methoxyacetamido)propanamide], the IC50 worked out at 0.13 ± 0.02 µM.

Take `O=C(CO)N[C@@H](Cc1c[nH]cn1)C(=O)Nc1cccc(-c2ccc(Oc3ccc(F)cc3)cc2)n1` [Compound 36, (S)-N-(6-(4-(4-fluorophenoxy)phenyl)pyridin-2-yl)-2-(2-hydroxyacetamido)-3-(1H-imidazol-4-yl)propanamide]: the IC50 is 0.14 ± 0.01 µM.

For the molecule `CC(C)(O)C(=O)N[C@@H](Cc1c[nH]cn1)C(=O)Nc1cccc(-c2ccc(Oc3ccc(F)cc3)cc2)n1` [Compound 37, (S)-N-(6-(4-(4-fluorophenoxy)phenyl)pyridin-2-yl)-2-(2-hydroxy-2-methylpropanamido)-3-(1H-imidazol-4-yl)propanamide], the 50% inhibitory concentration (IC50) amounted to 0.12 ± 0.03 µM.

As for `CC(C)(C)OC(=O)N[C@@H](CC(=O)Nc1cccc(-c2ccc(Oc3ccc(F)cc3)cc2)n1)C(N)=O` [Compound 40, (S)-tert-butyl (1-amino-4-((6-(4-(4-fluorophenoxy)phenyl)pyridin-2-yl)amino)-1,4-dioxobutan-2-yl)carbamate], the 50% inhibitory concentration (IC50) amounted to 0.13 ± 0.03 µM.

As for `CC(C)(C)OC(=O)N[C@@H](CC(N)=O)C(=O)Nc1cccc(-c2ccc(Oc3ccc(F)cc3)cc2)n1` [Compound 41, (S)-tert-butyl (4-amino-1-((6-(4-(4-fluorophenoxy)phenyl)pyridin-2-yl)amino)-1,4-dioxobutan-2-yl)carbamate], the IC50 is 0.066 ± 0.008 µM.

For `CC(C)C[C@H](NC(=O)C1CC1)C(=O)Nc1cc([C@H](O)CO)cc(-c2ccc(Oc3ccc(F)cc3)cc2)n1` [Compound 44, N-((S)-1-((4-((S)-1,2-dihydroxyethyl)-6-(4-(4-fluorophenoxy)phenyl)pyridin-2-yl)amino)-4-methyl-1-oxopentan-2-yl)cyclopropanecarboxamide], the IC50 worked out at 0.059 ± 0.12 µM.

Consider `CC(C)C[C@H](NC(=O)c1ccccn1)C(=O)Nc1cc([C@H](O)CO)cc(-c2ccc(Oc3ccc(F)cc3)cc2)n1` [Compound 45, N-((S)-1-((4-((S)-1,2-dihydroxyethyl)-6-(4-(4-fluorophenoxy)phenyl)pyridin-2-yl)amino)-4-methyl-1-oxopentan-2-yl)picolinamide], for which the IC50 was determined as 0.3 ± 0.07 µM.

Take `O=C(N[C@@H](CO)C(=O)Nc1cccc(-c2ccc(Oc3ccc(F)cc3)cc2)n1)c1ccccn1` [Compound 54, Pyridine-2-carboxylic acid ((S)-1-{6-[4-(4-fluoro-phenoxy)-phenyl]-pyridin-2-ylcarbamoyl}-2-hydroxy-ethyl)-amide]: the IC50 was 0.07 ± 0.02 µM.

For `O=C(N[C@@H](CO)C(=O)Nc1cccc(-c2ccc(Oc3ccc(F)cc3)cc2)n1)C1CC1` [Compound 55, Cyclopropanecarboxylic acid ((S)-1-{6-[4-(4-fluoro-phenoxy)-phenyl]-pyridin-2-ylcarbamoyl}-2-hydroxy-ethyl)-amide], the half-maximal inhibitory concentration (IC50) worked out at 0.06 ± 0.006 µM.

As to `O=C(N[C@@H](CO)C(=O)Nc1cccc(-c2ccc(Oc3ccc(F)cc3)cc2)n1)c1ccncc1` [Compound 57, N-((S)-1-{6-[4-(4-Fluoro-phenoxy)-phenyl]-pyridin-2-ylcarbamoyl}-2-hydroxy-ethyl)-isonicotinamide], the IC50 is 0.16 ± 0.03 µM.

For `Cc1cc(C(=O)N[C@@H](CO)C(=O)Nc2cccc(-c3ccc(Oc4ccc(F)cc4)cc3)n2)no1` [Compound 58, 5-Methyl-isoxazole-3-carboxylic acid ((S)-1-{6-[4-(4-fluoro-phenoxy)-phenyl]-pyridin-2-ylcarbamoyl}-2-hydroxy-ethyl)-amide], the half-maximal inhibitory concentration (IC50) was determined as 0.11 ± 0.04 µM.

The assay is the same for the next values; noted with them: recombinant Nav1.7/HEK293 cells; CoroNa Green sodium dye; veratridine + scorpion venom agonists; ± SEM.
Turning to `Cn1cnc(S(=O)(=O)Nc2cc([C@H](O)CO)cc(-c3ccc(Oc4ccc(F)cc4)cc3)n2)c1` [Compound 26, (S)-N-(4-(1,2-dihydroxyethyl)-6-(4-(4-fluorophenoxy)phenyl)pyridin-2-yl)-1-methyl-1H-imidazole-4-sulfonamide], the IC50 was above 20 µM.
